Experimental data as given in article PMC7892445 (Frontiers in Molecular Neuroscience, 2021).
Like-named read-outs stand apart in the source and are kept apart here.

Tests used:
[1] = molecular target: Chicken α10 homomeric nAChR (Gallus gallus, UniProt Q9I8C7); experiment: Two-electrode voltage clamp, recombinant homomeric receptor in X. laevis oocytes; type: cell-based; details: for EC50: mean ± SEM
Method: (§1) For expression studies, rat and chicken α9 and α10 nAChR subunits subcloned into a modified pGEMHE vector were used. Capped cRNAs were in vitro transcribed from linearized plasmid DNA templates using RiboMAX™ Large Scale RNA Production System (Promega, Madison, WI, USA). The maintenance of X. laevis and the preparation and cRNA injection of stage V and VI oocytes have been described in detail elsewhere (Verbitsky et al., [2000]). Typically, oocytes were injected with 50 nl of RNase-free water containing 0.01–1.0 ng of cRNA (at a 1:1 molar ratio for heteromeric receptors) and maintained in Barth’s solution [in mM: NaCl 88, Ca(NO3)2 0.33, CaCl2 0.41, KCl 1, MgSO4 0.82, NaHCO3 2.4, HEPES 10] at 18°C. Electrophysiological recordings were performed 2–6 days after cRNA injection under a two-electrode voltage clamp with an Oocyte Clamp OC-725B or C amplifier (Warner Instruments Corporation, Hamden, CT, USA). Recordings were filtered at a corner frequency of 10 Hz using a 900 BT Tunable Active Filter (Frequency Devices Inc., Ottawa, IL, USA). Data acquisition was performed using a Patch Panel PP-50 LAB/1 interphase (Warner Instruments Corp., Hamden, CT, USA) at a rate of 10 points per second. Both voltage and current electrodes were filled with 3 M KCl and had resistances of ~1 MΩ. Data were analyzed using Clampfit from the pClamp 6.1 software. During electrophysiological recordings, oocytes were continuously superfused (~15 ml/min) with normal frog saline composed of: 115 mM NaCl, 2.5 mM KCl, 1.8 mM CaCl2, and 10 mM HEPES buffer, pH 7.2. Drugs were added to the perfusion solution for the application. The membrane potential was clamped to −70 mV. To minimize activation of the endogenous Ca^2+ sensitive chloride current (Elgoyhen et al., [2001]), all experiments were performed in oocytes incubated with the Ca^2+ chelator 1,2-bis (2-aminophenoxy) ethane-N,N,N’,N’-tetraacetic acid-acetoxymethyl ester (BAPTA-AM, 100 μM) for 3 h before electrophysiological recordings. […] The mean and SEM of peak current responses are presented. Agonist concentration-response curves were iteratively fitted, using Prism 6 software (GraphPad Software Inc., La Jolla, CA, USA), with the equation: I/Imax = A^nh/(A^nH + EC50^nH), where I is the peak inward current evoked by agonist at concentration A; Imax is the current evoked by the concentration of agonist eliciting a maximal response; EC50 is the concentration of agonist inducing half-maximal current response, and nH is the Hill coefficient. An equation of the same form was used to analyze the concentration dependence of antagonist induced blockage.

[2] = molecular target: Chicken α9 homomeric nAChR (Gallus gallus, UniProt Q9PTS8); experiment: as above; type: cell-based; details: for EC50: mean ± SEM
Method: as §1

Rat α9 homomeric nAChR = molecular target: T1, Rat α9 homomeric nAChR (Rattus norvegicus, UniProt P43144); experiment: as above; type: cell-based
T1 construct: expressed in transfected cells; host or cells: Xenopus laevis oocytes (cRNA injection)
Method: as §1

Chicken α9α10 nAChR [3] = molecular target: T2, Chicken α9α10 nAChR (Gallus gallus, UniProt Q9I8C7+Q9PTS8); experiment: Two-electrode voltage clamp, recombinant heteromeric receptor in X. laevis oocytes; type: cell-based; details: for Emax: read-out: Efficacy (maximal response as % of that elicited by 1 mM ACh), Chicken α9α10
T2 construct: expressed in transfected cells; host or cells: Xenopus laevis oocytes (cRNA injection, 1:1 molar ratio)
Method: as §1

[4] = molecular target: T3, rat α9α10x chimeric receptor (Rattus norvegicus, UniProt P43144+Q9JLB5, A264D/A292P/A308T/A312F/A328P/E329N/F253L/F325Y/H335A/I246L/I275V/I289S/I304M/I310V/I323L/L250F/L309M/M279L/M319L/N295S/R331H/S258A/S293A/V320I/Y260H); experiment: Two-electrode voltage clamp, chimeric receptor in X. laevis oocytes; type: cell-based
T3 construct: expressed in transfected cells; host or cells: Xenopus laevis oocytes (cRNA injection)
Method: as §1
The α10W55T mutant subunit was produced as previously described (Boffi et al., [2017]) using Quick change XL II kit (Stratagene, La Jolla, CA, USA). […]

Chicken α9α10 nAChR [5] = molecular target: T2, Chicken α9α10 nAChR; parameters: method as in Elgoyhen et al., 2001; Lipovsek et al., 2012; details: previous work, ref Elgoyhen et al., 2001, Lipovsek et al., 2012; cited from earlier work
[6] = molecular target: rat α9–chicken α10 hybrid receptor (Rα9-Cα10) (UniProt P43144+Q9I8C7); experiment: Two-electrode voltage clamp, hybrid receptor in X. laevis oocytes; type: cell-based; details: mean ± SEM
Method: as §1

[7] = molecular target: rat α9α10W55T receptor (Rα9-Rα10W55T) (Rattus norvegicus, UniProt P43144+Q9JLB5, W81T); experiment: Two-electrode voltage clamp, mutant receptor in X. laevis oocytes; type: cell-based; details: mean ± SEM
Method: For expression studies, rat and chicken α9 and α10 nAChR subunits subcloned into a modified pGEMHE vector were used. Capped cRNAs were in vitro transcribed from linearized plasmid DNA templates using RiboMAX™ Large Scale RNA Production System (Promega, Madison, WI, USA). The maintenance of X. laevis and the preparation and cRNA injection of stage V and VI oocytes have been described in detail elsewhere (Verbitsky et al., [2000]). Typically, oocytes were injected with 50 nl of RNase-free water containing 0.01–1.0 ng of cRNA (at a 1:1 molar ratio for heteromeric receptors) and maintained in Barth’s solution [in mM: NaCl 88, Ca(NO3)2 0.33, CaCl2 0.41, KCl 1, MgSO4 0.82, NaHCO3 2.4, HEPES 10] at 18°C. Electrophysiological recordings were performed 2–6 days after cRNA injection under a two-electrode voltage clamp with an Oocyte Clamp OC-725B or C amplifier (Warner Instruments Corporation, Hamden, CT, USA). Recordings were filtered at a corner frequency of 10 Hz using a 900 BT Tunable Active Filter (Frequency Devices Inc., Ottawa, IL, USA). Data acquisition was performed using a Patch Panel PP-50 LAB/1 interphase (Warner Instruments Corp., Hamden, CT, USA) at a rate of 10 points per second. Both voltage and current electrodes were filled with 3 M KCl and had resistances of ~1 MΩ. Data were analyzed using Clampfit from the pClamp 6.1 software. […]

Rat α9α10 nAChR = molecular target: T4, Rat α9α10 nAChR (Rattus norvegicus, UniProt P43144+Q9JLB5); experiment: Two-electrode voltage clamp, recombinant heteromeric receptor in X. laevis oocytes; type: cell-based; details: for Efficacy (maximal response as % of that elicited by 1 mM ACh) / EC50: Rat α9α10; for Efficacy (maximal response as % of that elicited by 1 mM ACh) / EC50 / Emax: mean ± SEM; for EC50: −70 mV, BAPTA-AM treated oocytes; for Emax: read-out: Efficacy (maximal response as % of that elicited by 1 mM ACh), Rat α9α10
T4 construct: expressed in transfected cells; host or cells: Xenopus laevis oocytes (cRNA injection, 1:1 molar ratio)
Method: as §1

mouse outer hair cells = experiment: tissue or blood; details: read-out: Efficacy (maximum response normalized to maximal peak response to 3 mM ACh)
Method: (§2) Chicken auditory organ (basilar papilla) was dissected from the temporal bone of embryonic chickens (white Leghorns either sex, 17–20 days in ovo). The tegmentum vasculosum was removed and the tectorial membrane was stripped from the basilar papilla with most of the short hair cells (SHCs) still attached. This “tectorial preparation” was then inverted and secured in the recording chamber by spring clips. SHCs were recorded in a region 25–50% the distance from the apical (lagenar) to the basal tip of the basilar papilla of the chicken. Apical turns of the organ of Corti were excised from BALB/c mice of either sex between postnatal day 11 (P11) and P13 (around the onset of hearing in altricial rodents). At this age, outer hair cells (OHCs) are already innervated by the MOC fibers (Pujol et al., [1998]; Simmons, [2002]). The tectorial membrane was removed and the organ of Corti was positioned under an insect pin affixed to a cover-slip with a drop of Sylgard.
(§3) Basilar papilla and cochlear preparations were placed into a chamber on the stage of an upright microscope (Olympus BX51WI, Center Valley, PA, USA) at room temperature and used within 2 h. Cells were visualized on a monitor via a water immersion objective (60× magnification), differential interference contrast optics, and a CCD camera (Andor iXon 885, Belfast, UK). […]

chicken short hair cells = experiment: tissue or blood; details: Gallus gallus, read-out: Efficacy (maximum response normalized to maximal peak response to 3 mM ACh)
Method: as §2, §3

[8] = molecular target: chicken α9–rat α10 hybrid receptor (Cα9-Rα10) (UniProt Q9JLB5+Q9PTS8); experiment: Two-electrode voltage clamp, hybrid receptor in X. laevis oocytes; type: cell-based; details: mean ± SEM
Method: as §1

[9] = Chicken α9α10, mean ± SEM, read-out: EC50
[10] = α9α10x chimeric receptor, mean ± SEM

Sequence of rat α9–chicken α10 hybrid receptor (Rα9-Cα10) (P43144 26-479): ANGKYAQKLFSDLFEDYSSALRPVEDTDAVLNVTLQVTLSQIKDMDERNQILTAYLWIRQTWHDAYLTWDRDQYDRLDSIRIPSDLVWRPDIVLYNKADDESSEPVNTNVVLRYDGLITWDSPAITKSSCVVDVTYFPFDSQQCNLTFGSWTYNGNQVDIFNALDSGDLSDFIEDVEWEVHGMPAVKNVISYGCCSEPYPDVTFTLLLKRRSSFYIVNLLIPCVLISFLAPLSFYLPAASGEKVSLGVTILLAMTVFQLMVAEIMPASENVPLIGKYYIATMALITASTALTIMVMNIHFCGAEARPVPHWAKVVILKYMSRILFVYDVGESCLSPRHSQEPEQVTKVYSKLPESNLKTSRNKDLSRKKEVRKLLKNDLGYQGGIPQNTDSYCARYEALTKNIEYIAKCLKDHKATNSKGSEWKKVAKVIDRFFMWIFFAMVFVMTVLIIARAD
Sequence of rat α9–chicken α10 hybrid receptor (Rα9-Cα10) (Q9I8C7 27-452): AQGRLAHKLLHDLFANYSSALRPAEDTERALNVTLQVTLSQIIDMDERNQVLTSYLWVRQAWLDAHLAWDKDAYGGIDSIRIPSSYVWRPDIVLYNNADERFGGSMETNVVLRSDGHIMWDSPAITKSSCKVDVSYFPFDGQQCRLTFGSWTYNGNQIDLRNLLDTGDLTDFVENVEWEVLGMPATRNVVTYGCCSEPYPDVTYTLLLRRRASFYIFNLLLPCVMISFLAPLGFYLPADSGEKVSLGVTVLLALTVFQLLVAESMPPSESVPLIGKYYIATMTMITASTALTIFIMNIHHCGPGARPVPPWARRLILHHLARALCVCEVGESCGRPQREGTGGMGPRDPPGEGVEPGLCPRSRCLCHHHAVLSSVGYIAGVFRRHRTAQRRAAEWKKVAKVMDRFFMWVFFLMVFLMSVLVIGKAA
T1 sequence (P43144 26-479): as the sequence (P43144 26-479) above
T3 sequence (P43144 26-479, stated change not applied): as the sequence (P43144 26-479) above
T3 sequence (P43144+Q9JLB5 fused with the stated changes): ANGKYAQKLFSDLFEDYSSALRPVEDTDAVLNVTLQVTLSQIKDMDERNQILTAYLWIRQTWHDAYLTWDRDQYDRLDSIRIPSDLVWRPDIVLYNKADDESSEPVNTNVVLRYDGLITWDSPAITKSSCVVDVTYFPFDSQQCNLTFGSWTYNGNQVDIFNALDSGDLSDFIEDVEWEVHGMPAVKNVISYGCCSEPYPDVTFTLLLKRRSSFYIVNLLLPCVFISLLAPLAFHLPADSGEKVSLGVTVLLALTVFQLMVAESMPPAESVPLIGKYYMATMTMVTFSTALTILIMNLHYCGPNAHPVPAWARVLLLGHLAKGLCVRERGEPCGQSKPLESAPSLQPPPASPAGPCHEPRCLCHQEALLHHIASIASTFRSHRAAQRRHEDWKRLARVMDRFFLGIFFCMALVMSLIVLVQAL
T4 sequence (P43144 26-479): as the sequence (P43144 26-479) above
T4 sequence (Q9JLB5 25-447): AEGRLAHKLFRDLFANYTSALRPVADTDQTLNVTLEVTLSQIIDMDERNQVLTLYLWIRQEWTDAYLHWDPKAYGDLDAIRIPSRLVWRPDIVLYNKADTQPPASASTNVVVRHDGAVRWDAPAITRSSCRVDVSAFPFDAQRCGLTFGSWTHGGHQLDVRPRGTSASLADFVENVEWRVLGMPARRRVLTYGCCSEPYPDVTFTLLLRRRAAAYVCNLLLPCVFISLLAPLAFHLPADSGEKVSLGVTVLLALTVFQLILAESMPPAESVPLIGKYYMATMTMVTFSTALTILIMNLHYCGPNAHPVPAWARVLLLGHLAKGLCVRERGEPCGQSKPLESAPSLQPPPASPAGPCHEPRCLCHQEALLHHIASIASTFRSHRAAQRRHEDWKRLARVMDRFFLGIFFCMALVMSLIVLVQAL
Sequence of Chicken α10 homomeric nAChR (Q9I8C7 27-452): as the sequence (Q9I8C7 27-452) above
Sequence of Chicken α9 homomeric nAChR (Q9PTS8 28-484): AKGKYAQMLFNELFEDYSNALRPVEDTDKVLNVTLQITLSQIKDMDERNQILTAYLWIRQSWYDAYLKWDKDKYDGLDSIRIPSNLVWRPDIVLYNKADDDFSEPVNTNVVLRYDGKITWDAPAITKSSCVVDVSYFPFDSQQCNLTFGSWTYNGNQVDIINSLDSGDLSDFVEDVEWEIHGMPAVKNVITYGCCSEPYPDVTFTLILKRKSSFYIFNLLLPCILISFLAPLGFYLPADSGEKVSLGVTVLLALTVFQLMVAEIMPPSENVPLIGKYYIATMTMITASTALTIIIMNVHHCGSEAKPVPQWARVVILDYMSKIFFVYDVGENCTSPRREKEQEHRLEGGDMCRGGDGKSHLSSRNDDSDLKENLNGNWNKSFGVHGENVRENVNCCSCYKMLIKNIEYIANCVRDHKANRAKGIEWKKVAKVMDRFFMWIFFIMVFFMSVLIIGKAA
T2 sequence (Q9PTS8 28-484): as above
T2 sequence (Q9I8C7 27-452): as the sequence (Q9I8C7 27-452) above
Sequence of chicken α9–rat α10 hybrid receptor (Cα9-Rα10) (Q9PTS8 28-484): as the sequence (Q9PTS8 28-484) above
Sequence of chicken α9–rat α10 hybrid receptor (Cα9-Rα10) (Q9JLB5 25-447): as the sequence (Q9JLB5 25-447) above
Sequence of rat α9α10W55T receptor (Rα9-Rα10W55T) (P43144 26-479): as the sequence (P43144 26-479) above
Sequence of rat α9α10W55T receptor (Rα9-Rα10W55T) (Q9JLB5 25-447 W81T): as the sequence (Q9JLB5 25-447) above, with W57T counted along it

In the case of `CC(=O)OCC[N+](C)(C)C` [ACh, acetylcholine], the EC50 [1] is reported as 2.2 ± 0.7 µM, the EC50 [2] is reported as 12.9 ± 1.4 µM and the “Imax (maximal ACh response)” value (Rat α9 homomeric nAChR; homomeric rat α9) is reported as 14 ± 2 nA. The EC50 (Chicken α9α10 nAChR [3]) was 13.1 ± 2.6 µM, the “Imax (maximal ACh response)” value ([4]; rat α9 co-expressed with α10x) was 269 ± 103 nA and the EC50 (Chicken α9α10 nAChR [5]) was roughly 10 µM. The EC50 ([6]; Rα9-Cα10 hybrid) was 11.6 ± 2.9 µM.

Compound `C[N+](C)(C)CCO` [Choline, choline] has an EC50 [1] of 23.2 ± 8.3 µM, an Emax ([1]; read-out: Efficacy (maximal response as % of maximal ACh response), mean ± SEM) of 99.4 ± 9.5% and an EC50 [2] of 280 ± 20 µM. The Emax ([2]; read-out: Efficacy (maximal response as % of that elicited by 1 mM ACh), mean ± SEM) was 73.7 ± 5.9%, the “Efficacy (maximal response as % of that elicited by 1 mM ACh)” value (Rat α9 homomeric nAChR; Rat α9, mean ± SEM) was 87.3 ± 6.0 (4) % and the EC50 (Rat α9 homomeric nAChR; Rat α9, −70 mV, BAPTA-AM treated oocytes, mean ± SEM) was 188 ± 40 µM. The Emax (Rat α9 homomeric nAChR; read-out: Efficacy (maximal response as % of that elicited by 1 mM ACh), Rat α9, mean ± SEM) was 87 ± 6%, the “Efficacy (responses to 10 mM choline as % of those elicited by 1 mM ACh)” value [7] was 7.4 ± 1.9 (5) % and the “Efficacy (responses to 10 mM choline as % of those elicited by 1 mM ACh)” value ([7]; listed as choline) was 7 ± 2%. For the same compound, the EC50 (Chicken α9α10 nAChR [3]; [9]) was 200 ± 16 µM, the Emax (Chicken α9α10 nAChR [3]; mean ± SEM) was 88 ± 6.7% and the “Efficacy (maximal response as % of that elicited by 1 mM ACh)” value (Rat α9α10 nAChR) was 37.5 ± 2.5 (9) %. The “Efficacy (maximal response as % of that elicited by 1 mM ACh)” value (Rat α9α10 nAChR; listed as choline) was 38 ± 3%, the EC50 (Rat α9α10 nAChR) was 541 ± 62 µM and the Emax (Rat α9α10 nAChR) was 37 ± 3%. The Emax (mouse outer hair cells) was 50 ± 9%, the Emax (chicken short hair cells) was 90 ± 6% and the Emax ([4]; read-out: Efficacy (maximal response as % of maximal ACh response), α9α10x chimeric receptor, mean ± SEM) was 74 ± 1%. For the same compound, the EC50 [4, 10] was 160 ± 7.6 µM, the “Efficacy (maximal response as % of maximal ACh response)” value [4, 10] was 74.3 ± 1.0 (5) % and the EC50 ([8]; Cα9-Rα10 hybrid) was 333 ± 66.2 µM. The “Efficacy (maximal response as % of maximal ACh response)” value ([8]; Cα9-Rα10 hybrid) was 51.2 ± 6 (5) %, the Emax ([8]; read-out: Efficacy (maximal response as % of maximal ACh response), Cα9-Rα10 hybrid) was 51 ± 6% and the EC50 ([6]; Rα9-Cα10 hybrid) was 148 ± 12.1 µM. For the same compound, the “Efficacy (maximal response as % of responses to 1 mM ACh)” value ([6]; Rα9-Cα10 hybrid) was 86.4 ± 2.1 (6) % and the Emax ([6]; read-out: Efficacy (maximal response as % of responses to 1 mM ACh), Rα9-Cα10 hybrid) was 86 ± 2%.

With `C[N+](C)(C)CCOC(N)=O` [Carbachol, carbachol] the “Efficacy (maximal response as % of that elicited by 1 mM ACh)” value (Chicken α9α10 nAChR [3]; Chicken α9α10, mean ± SEM) was 89.8 ± 7.0 (6) %, the EC50 (Chicken α9α10 nAChR [3]; [9]) was 150 ± 15 µM and the “Potency relative to ACh (times lower)” value (Chicken α9α10 nAChR [3]; chicken α9α10, carbachol EC50 vs ACh) was roughly 12 times. For the same compound, the Emax (Chicken α9α10 nAChR [3]; mean ± SEM) was 89 ± 7%, the “Efficacy (maximal response as % of that elicited by 1 mM ACh)” value (Rat α9α10 nAChR) was 75.5 ± 5.2 (5) % and the EC50 (Rat α9α10 nAChR) was 159 ± 31.5 µM. For the same compound, the “Potency relative to ACh (times lower)” value (Rat α9α10 nAChR; rat α9α10, carbachol EC50 vs ACh) was roughly 12 times and the Emax (Rat α9α10 nAChR) was 75 ± 5%.

With `C[N+]1(C)CCN(c2ccccc2)CC1` [DMPP] the “Efficacy (maximal response as % of that elicited by 1 mM ACh)” value (Chicken α9α10 nAChR [3]; Chicken α9α10, mean ± SEM) was 32.6 ± 2.9 (5) %, the EC50 (Chicken α9α10 nAChR [3]; [9]) was 9.8 ± 0.5 µM and the “Efficacy (maximal response as % of that elicited by 1 mM ACh)” value (Rat α9α10 nAChR) was 0.6 ± 0.3 (6) %. It also gave an EC50 (Rat α9α10 nAChR) of 21.5 ± 4 µM.

With `CN1CCC[C@H]1c1cccnc1` [Nicotine, nicotine] the IC50 (Chicken α9α10 nAChR [3]) was 39.4 ± 3.4 µM, the “Agonist activity (currents elicited)” value (Chicken α9α10 nAChR [3]; oocytes expressing chicken α9α10) was “did not elicit currents” and the “Agonist activity (currents elicited)” value (Rat α9α10 nAChR; oocytes expressing rat α9α10) was “did not elicit currents”.
